Results on 3 molecules are retold here after US20260091050A1, “ADVANTAGEOUS ANTI-HCV COMBINATION THERAPY” (Atea Pharmaceuticals, Inc., priority 2021, published 2026).

Some results are limits rather than exact numbers.

The test system of one data set is GT3 HCV. Briefly: 600 mg QD for 7 days in non-cirrhotic GT3 HCV-infected patients (Part D). In kind it is in vivo, human. The following applies: 600 mg QD, Part D. The procedure:
(§1) Doses were administered as the Compound 1-A salt base. The free base Compound 1 equivalent is often given in parenthesis.
(§2) Part C was a randomized, double-blind, placebo-controlled MAD study divided into three cohorts. […] The dose escalation only proceeded following satisfactory review of the data.
(§3) HCV-infected patients were treatment-naïve with HCV RNA ≥5 log 10 IU/mL. HCV RNA was quantified using COBAS® AmpliPrep TaqMAN® v2.0 with LLQ of 15 IU/mL. Plasma drug levels were measured using LC-MS/MS. […] Mean ages of enrolled subjects were 44, 39, and 56 years in the non-cirrhotic GT1b 600 mg dose cohort, non-cirrhotic GT3 cohort, and the cirrhotic cohort, respectively.

The next data set has as its system GT1, GT2, or GT3 HCV. Put plainly: 600 mg QD for 7 days in Child-Pugh A cirrhotic patients with GT1, GT2 or GT3 HCV (Part E). In kind it is in vivo, human. As for the experimental part:
Doses were administered as the Compound 1-A salt base. The free base Compound 1 equivalent is often given in parenthesis. […]
as §3

Data set [1] relates to GT1 HCV. Put plainly: Multiple dose study, 7 days QD, non-cirrhotic GT1 HCV-infected patients (Part C). Format: in vivo, human. As for the experimental part: as §1, §2, §3
Data set [2] is described as follows: Plasma profiles of Compound 1 and metabolite 1-7 after single oral dose of Compound 1-A, Sprague-Dawley rats. Format: in vivo. The following applies: rat, single oral dose of Compound 1-A 500 mg/kg (0.5% CMC, 0.5% Tween 80 in water).
Data set [3] can be described thus: Plasma profiles of Compound 1 and metabolite 1-7 after single oral doses of Compound 1-A, cynomolgus monkeys. Format: in vivo. The following applies: monkey.
Data set [4] can be described thus: Three-part study (Parts C, D, E) of Compound 1-A: overall safety/tolerability and pharmacokinetics. Format: in vivo, human. The note with it: for AUC / AUC(0-inf): human; for AUC: plasma, oral. As for the experimental part:
as §2
HCV-infected patients were treatment-naïve with HCV RNA ≥5 log 10 IU/mL. […] Plasma drug levels were measured using LC-MS/MS.

The nature of data set [5]: Single ascending dose study of Compound 1-A in healthy volunteers (Part A). Format: in vivo, human. The following applies: healthy subjects, single dose of Compound 1-A 400 mg, median (range). As for the experimental part:
Compound 1-A was tested in a single ascending dose (SAD) study to measure its safety, tolerability, and pharmacokinetic in healthy subjects (Part A). Part A was a randomized, double-blind, placebo-controlled SAD study. Healthy subjects in Part A received a single dose of Compound 1-A or placebo in the fasting state. Subjects were confined to the clinic from Day −1 to Day 6.
Dosing in each cohort was staggered such that 2 subjects (1 active:1 placebo) were evaluated for 48 hours after dosing before the remainder of the cohort was dosed. Each cohort received Compound 1-A in ascending order. Dosing of sequential cohorts occurred based on review of available safety data (through Day 5) and plasma pharmacokinetic data (through 24 h) of the prior cohort.
As pharmacokinetic and safety data emerged from prior cohorts, doses evaluated in Cohorts 3a-4a were adjusted by increments no more than 100 mg.
Healthy volunteers in the Part A portion of the study were male and female subjects between the ages of 18 and 65. Active and placebo recipients were pooled within each Part A cohort to preserve the study blind.

Data set [6] concerns GT1 HCV. Briefly: Single ascending dose study of Compound 1-A in GT1-HCV infected patients (Part B). Format: in vivo, human. The procedure:
Subjects in Part B received a single dose of Compound 1-A in the fasting state. Patients were confined to the clinic from Day −1 to Day 6.
Part B was initiated after the safety (through Day 5) and plasma pharmacokinetic (through 24 h) data review from Cohort 3a in Part A. Available safety data (through Day 5) and pharmacokinetic data (through 24 h) was reviewed for the first cohort in Part B (Cohort 1b) before enrolling subsequent Part B cohorts. Subsequent Part B cohorts were only dosed following review of available safety and pharmacokinetic data from the respective doses in Part A as well as available safety (through Day 5) from the prior Part B cohorts.
Patients infected with HCV were treatment-naïve, non-cirrhotic GT1-infected subjects with a viral load of ≥5 log10 IU/mL.
Baseline was defined as the mean of Day −1 and Day 1 (pre-dose). […] The mean maximum HCV RNA reduction 24 hours post-dose following a single 300 mg dose was 1.7 log10 IU/mL and this compares to a −2 log 10 IU/mL reduction after 1 day of 400 mg of sofosbuvir monotherapy in GT1a HCV-infected subjects. The mean maximum HCV RNA reduction 24 hours post-dose following a single 100 mg dose was 0.8 log10 IU/mL. The mean 10 maximum HCV RNA reduction was 2.2 log10 IU/mL following a single 400 mg dose.

The test system of a further data set is HCV. The following applies: cited from earlier work.
Data set [7] deals with replicons containing the NS5B sequences from HCV patient plasma samples (GT1a, 1b, 2a, 2b, 3a-1, 3a-2, 4a and 4d). Put plainly: Replicons containing NS5B sequences from HCV patient plasma samples (clinical isolates). Format: cell-based.
Data set [8] is described as follows: Solubility in biorelevant test medias (water, SGF, FaSSIF, FeSSIF). The following applies: for Appearance: solubility test; for Descriptive term: solubility.
Data set [9] is described as follows: Head-to-head comparison of Compound 1 and Compound 1-A in dogs: plasma levels. The following applies: dog plasma, normalized to a dose of 25 mg/kg; 25 mg/kg. Format: in vivo. The procedure: A head-to-head comparison of dogs dosed with Compound 1 and Compound 1-A was conducted.
Data set [10] deals with replicons containing the NS5B sequences from HCV laboratory reference strains (GT1a, 1b, 2a, 3a, 4a and 5a). Put plainly: Replicons containing NS5B sequences from laboratory reference strains. Format: cell-based. The following applies: laboratory strains of HCV Genotypes 1-5.
Where [11] appears, read: single oral dose of Compound 1-A 30 mg/kg (powder in capsules).
[12] abbreviates: single oral dose of Compound 1-A 100 mg/kg (powder in capsules).
Setting [13] is: single oral dose of Compound 1-A 300 mg/kg (powder in capsules).

Take `C[C@@]1(F)[C@H](O)[C@@H](CO)O[C@H]1n1cnc2c(=O)[nH]c(N)nc21` [metabolite 1-7, 2-amino-9-((2R,3R,4R,5R)-3-fluoro-4-hydroxy-5-(hydroxymethyl)-3-methyltetrahydrofuran-2-yl)-1,9-dihydro-6H-purin-6-one]: the “subjects achieving HCV RNA below the lower limit of quantitation” value in the data set with GT3 HCV worked out at 17%; with GT1, GT2, or GT3 HCV (600 mg QD, Part E), 17%. Besides, in the data set with GT1, GT2, or GT3 HCV (subjects with cirrhosis), the “day on which steady state of concentrations was reached” value amounted to 5 days. Besides, in the data set on GT1 HCV [1] (600 mg QD, non-cirrhotic GT1b, LOQ=15 IU/mL), the “subjects achieving HCV RNA <LOQ” value was found to be 50%. For the same molecule, the “time of peak formation after dosing” value with GT1 HCV [1] (Part C) is listed as “approximately 6 hours”. For the same molecule, the AUC0-last worked out at 9640 ng·h/mL in data set [2], 1620 ng·h/mL in [3] (setting [11]), 3030 ng·h/mL in [3] (setting [12]) and 3660 ng·h/mL in data set [3] (setting [13]). Besides, the Cmax in data set [2] was 541 ng/mL; in data set [3] (setting [11]), 42.5 ng/mL; in data set [3] (setting [12]), 131 ng/mL; in data set [3] (setting [13]), 93.6 ng/mL. Moreover, the T1/2 in [2] turned out to be 15.3 h; in [3] (setting [11]), 11.5 h; in data set [3] (setting [12]), 15.0 h; in data set [3] (setting [13]) it was 18.8 h. For the same molecule, the Tmax in data set [2] was 6 to 8 h; in data set [3] (setting [11]), 12 to 24 h; in data set [3] (setting [12]), 4 h; in data set [3] (setting [13]), 4 to 24 h; in [5], 6.0 (4.0-8.0) h; with GT1 HCV [6] (GT1-HCV infected patients, Compound 1-A 300 mg (second 300 mg line), median (range)) it was 4.0 (3.0-6.0) h. In addition, the “T1/2 SS” value in data set [4] (Part E, 600 mg/d (n=6), steady state) is 24.4 ± 9.81 h. Besides, the AUC in data set [4] (150 mg/d, AUC Day 1 (AUC, for Metabolite 1-7), Part C, 150 mg/d (n=6), Day 1) turned out to be 800 ± 213 ng·h/mL; in data set [4] (150 mg/d, AUC SS (AUC, for Metabolite 1-7), Part C, 150 mg/d (n=6), steady state) it was 962 ± 409 ng·h/mL; in [4] (300 mg/d, AUC Day 1 (AUC, for Metabolite 1-7), Part C, 300 mg/d (n=6), Day 1), 1410 ± 220 ng·h/mL; in data set [4] (300 mg/d, AUC SS (AUC, for Metabolite 1-7), Part C, 300 mg/d (n=6), steady state), 1830 ± 453 ng·h/mL. Further, the “food effect on total and trough exposure” value in [4] (in vivo) is given as “No food effect”.
Turning to `CC(C)OC(=O)[C@H](C)N[P@](=O)(OC[C@H]1O[C@@H](n2ccc(=O)[nH]c2=O)[C@](C)(F)[C@@H]1O)Oc1ccccc1` [sofosbuvir], the “HCV RNA reduction” value in the data set with HCV (after 1 day of 400 mg monotherapy, GT1a HCV-infected subjects) is on record as −2 log 10 IU/mL. Also, the steady-state trough concentration entry in the data set with HCV (similar dosage form (400 mg QD)) was “approximately 100 ng/mL”. The 95% effect concentration (EC95) result in [7] (GT1, GT3, and GT4 clinical isolates, nucleoside equivalent) was “greater than 100 ng/mL”.
Consider `CNc1nc(N)nc2c1ncn2[C@@H]1O[C@H](CO[P@@](=O)(N[C@@H](C)C(=O)OC(C)C)Oc2ccccc2)[C@@H](O)[C@@]1(C)F` [Compound 1, isopropyl((S)-(((2R,3R,4R,5R)-5-(2-amino-6-(methylamino)-9H-purin-9-yl)-4-fluoro-3-hydroxy-4-methyltetrahydrofuran-2-yl)methoxy)(phenoxy)phosphoryl)-L-alaninate], for which the half-life result in the data set with GT1 HCV [1] (daily dosing for 7 days, Part C) is on record as “short half-life”. For the same molecule, the AUC0-last in data set [2] worked out at 78.2 ng·h/mL; in [3] (setting [11]), 176 ng·h/mL; in [3] (setting [12]), 1100 ng·h/mL; in data set [3] (setting [13]), 1600 ng·h/mL. Also, the highest concentration (Cmax) in data set [2] is listed as 60.8 ng/mL; in data set [3] (setting [11]), 63.5 ng/mL; in data set [3] (setting [12]) it was 783 ng/mL; in data set [3] (setting [13]) it was 501 ng/mL. The Tmax was 0.25 h in [2], 0.5 to 2 h in data set [3] (setting [11]) and 1 to 2 h in data set [3] (setting [12]). Further, the estimated fraction absorbed in data set [4] (based on urine recovery) is listed as about 50%. In addition, the AUC(0-inf) worked out at 492 ± 141 ng·h/mL in data set [4] (in vivo, 150 mg/d, AUC Day 1 (AUCinf for Compound 1), Part C, 150 mg/d (n=6), Day 1); 475 ± 301 ng·h/mL in data set [4] (in vivo, 150 mg/d, AUC SS (AUCinf for Compound 1), Part C, 150 mg/d (n=6), steady state); 1950 ± 1120 ng·h/mL in [4] (in vivo, 300 mg/d, AUC Day 1 (AUCinf for Compound 1), Part C, 300 mg/d (n=6), Day 1); 1510 ± 976 ng·h/mL in data set [4] (in vivo, 300 mg/d, AUC SS (AUCinf for Compound 1), Part C, 300 mg/d (n=6), steady state); 3340 ± 1500 ng·h/mL in data set [4] (in vivo, 600 mg/d, AUC Day 1 (AUCinf for Compound 1), Part C, 600 mg/d (n=6), Day 1); 3330 ± 1240 ng·h/mL in [4] (in vivo, 600 mg/d, AUC Day 1 (AUCinf for Compound 1), Part D, 600 mg/d (n=6), Day 1). Moreover, the area under the curve AUC(0-inf) in data set [4] (in vivo, 600 mg/d, AUC Day 1 (AUCinf for Compound 1), Part E, 600 mg/d (n=6), Day 1) stood at 3320 ± 1470 ng·h/mL; in data set [4] (in vivo, 600 mg/d, AUC SS (AUCinf for Compound 1), Part C, 600 mg/d (n=6), steady state) it was 4040 ± 2090 ng·h/mL; in [4] (in vivo, 600 mg/d, AUC SS (AUCinf for Compound 1), Part D, 600 mg/d (n=6), steady state), 3750 ± 2280 ng·h/mL; in data set [4] (in vivo, 600 mg/d, AUC SS (AUCinf for Compound 1), Part E, 600 mg/d (n=6), steady state) it was 3530 ± 1600 ng·h/mL. The Appearance entry in data set [8] (FaSSIF) was “Turbid”; in [8] (FeSSIF) it was “Turbid”; in data set [8] (SGF), “Clear Solution”; in data set [8] (Water), “Clear Solution”. Besides, the Descriptive term entry in data set [8] (FaSSIF) is “Slightly Soluble”; in data set [8] (FeSSIF) it was “Slightly Soluble”; in data set [8] (SGF) it was “Sparingly”; in data set [8] (Water), “Slightly Soluble”. For the same molecule, the “Mean Dose-normalized AUC(0-4 hr) for Compound 1” value in data set [9] stood at 0.2 µM·h. The “EC50 values, times lower than (more potent than) sofosbuvir” value in [10] is reported as 6-11 times. Also, the “time within which the parent is metabolized” value in the data set on GT1 HCV [6] (single oral dose of Compound 1-A, plasma) was at most 8 h. The 95% effect concentration (EC95) result is on record as “approximately 21.7 ng/mL equivalents of metabolite 1-7” in [7] (HCV GT1); ~11.6 ng/mL equivalents of metabolite 1-7 in data set [7] (HCV GT2); ~17.5 ng/mL equivalents of metabolite 1-7 in data set [7] (HCV GT3); under 80 nM in data set [7] (clinical isolates, all tested genotypes). Moreover, the “EC95 values, times lower than sofosbuvir” value in data set [7] (clinical isolates of all HCV genotypes tested) is recorded as 7-33 times.
